Reference: patent US8822447B2, “Indazole compounds useful as ketohexokinase inhibitors” (Janssen Pharmaceutica NV, priority 2010, dated 2014)
Counter-ions that a name gives are not always drawn.

Target: KHK (Homo sapiens (Human), UniProt P50053)
Assay: In Vitro KHK Enzyme Assay (HTMS);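 note: primary screen measuring inhibition of KHK-catalysed conversion of D-fructose into fructose 1-phosphate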
Type: biochemical
Details: 200 μM fructose, 100 μM ATP, 2 nM KHK, 60 min at 25° C.; Fructose-1-P detected by high throughput mass spectrometry

KHK, sequence (P50053 whole entry): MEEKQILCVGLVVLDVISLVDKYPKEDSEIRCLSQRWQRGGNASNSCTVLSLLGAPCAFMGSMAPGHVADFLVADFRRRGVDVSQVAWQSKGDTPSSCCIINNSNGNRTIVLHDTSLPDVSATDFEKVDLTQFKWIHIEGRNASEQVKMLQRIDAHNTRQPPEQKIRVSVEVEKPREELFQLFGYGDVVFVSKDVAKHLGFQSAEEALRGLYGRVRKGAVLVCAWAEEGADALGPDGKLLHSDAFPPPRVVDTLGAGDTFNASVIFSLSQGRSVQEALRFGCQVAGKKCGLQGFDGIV

| SMILES | IC50 [nM] |
| --- | --- |
| CSc1nn(-c2ccccc2)c2cc(N3CCN(C(=O)C4CCCN4)CC3)ccc12 (centres unmarked) [Compound 33, (4-(3-(Methylthio)-1-phenyl-1H-indazol-6-yl)piperazin-1-yl)(pyrrolidin-2-yl)methanone hydrochloride] | 5340 |
| CCc1nn(-c2ccccc2)c2cc(-c3ccc(OC4CCNCC4)cc3)ccc12 [Compound 37, 3-Ethyl-1-phenyl-6-(4-(piperidin-4-yloxy)phenyl)-1H-indazole hydrochloride] | 5870 |
| CCc1nn(-c2ccccc2)c2cc(OC3CN(C4CCNCC4)C3)ccc12 [Compound 41, 3-Ethyl-1-phenyl-6-(1-(piperidin-4-yl)azetidin-3-yloxy)-1H-indazole hydrochloride] | > 30000 |
| CCc1nn(-c2ccccc2)c2cc(N3CCNCC3)ccc12 [Compound 42, 3-Ethyl-1-phenyl-6-(piperazin-1-yl)-1H-indazole] | 570 |
| CCc1nn(-c2ccccc2)c2cc(N3CC4CNCC4C3)ccc12 (centres unmarked) [Compound 50, 3-Ethyl-6-(hexahydropyrrolo[3,4-c]pyrrol-2(1H)-yl)-1-phenyl-1H-indazolehydrochloride] | 5360 |
| CCc1nn(-c2ccccc2)c2cc(-c3ccc(N4CCNCC4)cc3)ccc12 [Compound 52, 3-Ethyl-1-phenyl-6-(4-(piperazin-1-yl)phenyl)-1H-indazole hydrochloride] | 9800 |
| CCc1nn(-c2ccccc2)c2cc(N3CCN(C)CC3)ccc12 [Compound 54, 3-Ethyl-6-(4-methylpiperazin-1-yl)-1-phenyl-1H-indazole] | 4520 |
| CCc1nn(-c2ccccc2)c2cc(N3CCN(CC)CC3)ccc12 [Compound 55, 3-Ethyl-6-(4-ethylpiperazin-1-yl)-1-phenyl-1H-indazole] | 11500 |
| CCc1nn(-c2ccccc2)c2cc(N3CCNC(C)C3)ccc12 (centres unmarked) [Compound 56, 3-Ethyl-6-(3-methylpiperazin-1-yl)-1-phenyl-1H-indazole] | 860 |
| Cc1nn(-c2ccccc2)c2cc(-c3ccc(N4CCNCC4)cc3)ccc12 [Compound 58, 3-Methyl-1-phenyl-6-(4-piperazin-1-yl-phenyl)-1H-indazole hydrochloride] | 7500 |
| Cc1nn(-c2ccccc2)c2cc(N3CCNCC3)ccc12 [Compound 59, 3-Methyl-1-phenyl-6-(piperazin-1-yl)-1H-indazole] | 1280 |
| Cc1nn(-c2ccccc2)c2cc(N3CCN(C4CCNCC4)CC3)ccc12 [Compound 64, 3-Methyl-1-phenyl-6-(4-(piperidin-4-yl)piperazin-1-yl)-1H-indazole hydrochloride] | 9060 |
| Cc1nn(-c2ccccc2)c2cc(N3CCN(c4ccncc4)CC3)ccc12 [Compound 65, 3-Methyl-1-phenyl-6-(4-(pyridin-4-yl)piperazin-1-yl)-1H-indazole hydrochloride] | 7730 |
| Cc1nn(-c2ccccc2)c2cc(N3CCN(C)CC3)ccc12 [Compound 68, 3-Methyl-6-(4-methylpiperazin-1-yl)-1-phenyl-1H-indazole] | 1570 |
| CCN1CCN(c2ccc3c(C)nn(-c4ccccc4)c3c2)CC1 [Compound 69, 6-(4-Ethylpiperazin-1-yl)-3-methyl-1-phenyl-1H-indazole 2,2,2-trifluoroacetic acid salt] | 14200 |
| Cc1nn(-c2ccccc2)c2cc(N3CCN(C(C)C)CC3)ccc12 [Compound 70, 6-(4-Isopropylpiperazin-1-yl)-3-methyl-1-phenyl-1H-indazole formic acid salt] | 14700 |
| Cc1nn(-c2ccccc2)c2cc(N3CCNC(C)C3)ccc12 (centres unmarked) [Compound 71, 3-Methyl-6-(3-methylpiperazin-1-yl)-1-phenyl-1H-indazole formic acid salt] | 400 |
| COc1nn(-c2ccccc2)c2cc(N3CCN(C4CNC4)CC3)ccc12 [Compound 74, 6-(4-(Azetidin-3-yl)piperazin-1-yl)-3-methoxy-1-phenyl-1H-indazole hydrochloride] | 5960 |
| COc1nn(-c2ccccc2)c2cc(N3CCN(c4ccncc4)CC3)ccc12 [Compound 77, 3-Methoxy-1-phenyl-6-(4-(pyridin-4-yl)piperazin-1-yl)-1H-indazole hydrochloride] | 8100 |
| COc1nn(-c2ccccc2)c2cc(-c3ccc(-n4ccnc4)cc3)ccc12 [Compound 79, 6-(4-(1H-Imidazol-1-yl)phenyl)-3-methoxy-1-phenyl-1H-indazole] | > 30000 |

The next lines start with the values.

| IC50 [nM] | SMILES |
| --- | --- |
| 830 | CSc1nn(-c2ccccc2)c2cc(N3CCN(C(=O)C4CCNCC4)CC3)ccc12 [Compound 34, (4-(3-(Methylthio)-1-phenyl-1H-indazol-6-yl)piperazin-1-yl)(piperidin-4-yl)methanone hydrochloride] |
| 430 | CSc1nn(-c2ccccc2)c2cc(N3CCN(C(=O)C4CCCCN4)CC3)ccc12 (centres unmarked) [Compound 35, (4-(3-(Methylthio)-1-phenyl-1H-indazol-6-yl)piperazin-1-yl)(piperidin-2-yl)methanone] |
| 890 | CCc1nn(-c2ccccc2)c2cc(N3CCC(N4CCNCC4)CC3)ccc12 [Compound 36, 3-Ethyl-1-phenyl-6-(4-piperazin-1-yl-piperidin-1-yl)-1H-indazole hydrochloride] |
| 940 | CCc1nn(-c2ccccc2)c2cc(NC(=O)c3ccc4[nH]cnc4c3)ccc12 [Compound 38, N-(3-Ethyl-1-phenyl-1H-indazol-6-yl)-1H-benzo[d]imidazole-5-carboxamide] |
| 680 | CCc1nn(-c2ccccc2)c2cc(NC(=O)c3cccc(C(=N)N)c3)ccc12 [Compound 40, 3-Carbamimidoyl-N-(3-ethyl-1-phenyl-1H-indazol-6-yl)benzamide acetate] |
| 2350 | CCc1nn(-c2ccccc2)c2cc(N3CCC(N4CCNCC4)C3)ccc12 (centres unmarked) [Compound 43, 3-Ethyl-1-phenyl-6-(3-(piperazin-1-yl)pyrrolidin-1-yl)-1H-indazole hydrochloride] |
| 2400 | CCc1nn(-c2ccccc2)c2cc(N3CCN(C4CNC4)CC3)ccc12 [Compound 44, 6-(4-(azetidin-3-yl)piperazin-1-yl)-3-ethyl-1-phenyl-1H-indazole hydrochloride] |
| 2060 | CCc1nn(-c2ccccc2)c2cc(N3CCN(C4CCNC4)CC3)ccc12 (centres unmarked) [Compound 45, 3-Ethyl-1-phenyl-6-(4-(pyrrolidin-3-yl)piperazin-1-yl)-1H-indazole hydrochloride] |
| 560 | CCc1nn(-c2ccccc2)c2cc(N3CCN(C4CCNCC4)CC3)ccc12 [Compound 46, 3-Ethyl-1-phenyl-6-(4-(piperidin-4-yl)piperazin-1-yl)-1H-indazole hydrochloride] |
| 3510 | CCc1nn(-c2ccccc2)c2cc(N3CCN(c4ccncc4)CC3)ccc12 [Compound 47, 3-Ethyl-1-phenyl-6-(4-(pyridin-4-yl)piperazin-1-yl)-1H-indazole hydrochloride] |
| 2370 | CCc1nn(-c2ccccc2)c2cc(N3CCN(C4CCNC4)C3=O)ccc12 (centres unmarked) [Compound 48, 1-(3-Ethyl-1-phenyl-1H-indazol-6-yl)-3-(pyrrolidin-3-yl)imidazolidin-2-one hydrochloride] |
| 1800 | CCc1nn(-c2ccccc2)c2cc(N3CCN(C4CCNCC4)C3=O)ccc12 [Compound 49, 1-(3-Ethyl-1-phenyl-1H-indazol-6-yl)-3-(piperidin-4-yl)imidazolidin-2-one hydrochloride] |
| 1470 | CCc1nn(-c2ccccc2)c2cc(N3CCC4(CCNC4)C3)ccc12 (centres unmarked) [Compound 51, 6-(2,7-Diaza-spiro[4.4]non-2-yl)-3-ethyl-1-phenyl-1H-indazole hydrochloride] |
| 2300 | Cc1nn(-c2ccccc2)c2cc(N3CC(N4CCNCC4)C3)ccc12 [Compound 60, 3-Methyl-1-phenyl-6-(3-(piperazin-1-yl)azetidin-1-yl)-1H-indazole hydrochloride] |
| 1010 | Cc1nn(-c2ccccc2)c2cc(N3CCC(N4CCNCC4)C3)ccc12 (centres unmarked) [Compound 61, 3-Methyl-1-phenyl-6-(3-(piperazin-1-yl)pyrrolidin-1-yl)-1H-indazole hydrochloride] |
| 1600 | Cc1nn(-c2ccccc2)c2cc(N3CCN(C4CNC4)CC3)ccc12 [Compound 62, 6-(4-(Azetidin-3-yl)piperazin-1-yl)-3-methyl-1-phenyl-1H-indazole hydrochloride] |
| 3750 | Cc1nn(-c2ccccc2)c2cc(N3CCN(C4CCNC4)CC3)ccc12 (centres unmarked) [Compound 63, 3-Methyl-1-phenyl-6-(4-(pyrrolidin-3-yl)piperazin-1-yl)-1H-indazole hydrochloride] |
| 160 | Cc1nn(-c2ccccc2)c2cc(NC(=O)c3ccc4[nH]cnc4c3)ccc12 [Compound 66, N-(3-methyl-1-phenyl-1H-indazol-6-yl)-1H-benzo[d]imidazole-5-carboxamide] |
| 1230 | Cc1nn(-c2ccccc2)c2cc(N3CCN(C4CCNCC4)C3=O)ccc12 [Compound 67, 1-(3-Methyl-1-phenyl-1H-indazol-6-yl)-3-(piperidin-4-yl)imidazolidin-2-one hydrochloride] |
| 680 | Cc1nn(-c2ccccc2)c2cc(N3CCC(N)C3)ccc12 (centres unmarked) [Compound 72, 1-(3-Methyl-1-phenyl-1H-indazol-6-yl)pyrrolidin-3-amine formic acid salt] |
| 390 | COc1nn(-c2ccccc2)c2cc(N3CC(N4CCNCC4)C3)ccc12 [Compound 73, 3-Methoxy-1-phenyl-6-(3-(piperazin-1-yl)azetidin-1-yl)-1H-indazole hydrochloride] |
| 310 | COc1nn(-c2ccccc2)c2cc(N3CCN(C4CCNC4)CC3)ccc12 (centres unmarked) [Compound 75, 3-Methoxy-1-phenyl-6-(4-(pyrrolidin-3-yl)piperazin-1-yl)-1H-indazole hydrochloride] |
| 1380 | COc1nn(-c2ccccc2)c2cc(N3CCN(C4CCNCC4)CC3)ccc12 [Compound 76, 3-Methoxy-1-phenyl-6-(4-(piperidin-4-yl)piperazin-1-yl)-1H-indazole hydrochloride] |
| 4420 | COc1nn(-c2ccccc2)c2cc(-c3ccc(N4CCNCC4)cc3)ccc12 [Compound 78, 3-Methoxy-1-phenyl-6-(4-(piperazin-1-yl)phenyl)-1H-indazole hydrochloride] |
